“And” between values parts separate entries of the source, which are not always exact repeats. Identical values can stand only once.

Test [1] deals with mTOR enzyme (mTOR(1360-2549)+GBL) (Homo sapiens, UniProt P42345). Put plainly: In vitro mTOR kinase assay (TR-FRET). Format: biochemical. Conditions: 0.25 nM mTOR+GBL, 8 uM ATP; values tied to compounds by order of Table 1; 'x or y' = two alternative values for separated diastereomers of unassigned stereochemistry; read-out: activity level (Ki) in the mTOR kinase assay. The method in brief:
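Compounds were tested in 10-point dose curves from 10 uM top final concentration. The reaction was stopped with 2 nM Tb-anti-p4E-BP1 (T37/T46) antibody plus 10 mM EDTA for 30 minutes, and phospho-4E-BP1 was detected by TR-FRET. Ki apparent was fitted with the Morrison ATP-competitive tight-binding equation.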
(In general: Time-resolved FRET reads energy transfer from a long-lived donor to a nearby acceptor.)

The next test concerns PC3 cells. Kind of test: In vitro cell proliferation assay. The class given is cell-based, human. The settings on record: values tied to compounds by order of Table 1. The method in brief:
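PC3 (or MDAMB361.1) cells, ~10^3/well, settled overnight, then exposed to compound for 3 days; viability read by CellTiter-Glo luminescence (RLU). Alternatively, 4-day compound exposure followed by Alamar Blue for 6 h, fluorescence 544/590 nm; EC50 from sigmoidal dose-response fit.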

The mark [2] stands for this setting: Homo sapiens, PC-3, with PC3 cells.

Chain of mTOR enzyme (mTOR(1360-2549)+GBL) (P42345 1360-2549, species assumed): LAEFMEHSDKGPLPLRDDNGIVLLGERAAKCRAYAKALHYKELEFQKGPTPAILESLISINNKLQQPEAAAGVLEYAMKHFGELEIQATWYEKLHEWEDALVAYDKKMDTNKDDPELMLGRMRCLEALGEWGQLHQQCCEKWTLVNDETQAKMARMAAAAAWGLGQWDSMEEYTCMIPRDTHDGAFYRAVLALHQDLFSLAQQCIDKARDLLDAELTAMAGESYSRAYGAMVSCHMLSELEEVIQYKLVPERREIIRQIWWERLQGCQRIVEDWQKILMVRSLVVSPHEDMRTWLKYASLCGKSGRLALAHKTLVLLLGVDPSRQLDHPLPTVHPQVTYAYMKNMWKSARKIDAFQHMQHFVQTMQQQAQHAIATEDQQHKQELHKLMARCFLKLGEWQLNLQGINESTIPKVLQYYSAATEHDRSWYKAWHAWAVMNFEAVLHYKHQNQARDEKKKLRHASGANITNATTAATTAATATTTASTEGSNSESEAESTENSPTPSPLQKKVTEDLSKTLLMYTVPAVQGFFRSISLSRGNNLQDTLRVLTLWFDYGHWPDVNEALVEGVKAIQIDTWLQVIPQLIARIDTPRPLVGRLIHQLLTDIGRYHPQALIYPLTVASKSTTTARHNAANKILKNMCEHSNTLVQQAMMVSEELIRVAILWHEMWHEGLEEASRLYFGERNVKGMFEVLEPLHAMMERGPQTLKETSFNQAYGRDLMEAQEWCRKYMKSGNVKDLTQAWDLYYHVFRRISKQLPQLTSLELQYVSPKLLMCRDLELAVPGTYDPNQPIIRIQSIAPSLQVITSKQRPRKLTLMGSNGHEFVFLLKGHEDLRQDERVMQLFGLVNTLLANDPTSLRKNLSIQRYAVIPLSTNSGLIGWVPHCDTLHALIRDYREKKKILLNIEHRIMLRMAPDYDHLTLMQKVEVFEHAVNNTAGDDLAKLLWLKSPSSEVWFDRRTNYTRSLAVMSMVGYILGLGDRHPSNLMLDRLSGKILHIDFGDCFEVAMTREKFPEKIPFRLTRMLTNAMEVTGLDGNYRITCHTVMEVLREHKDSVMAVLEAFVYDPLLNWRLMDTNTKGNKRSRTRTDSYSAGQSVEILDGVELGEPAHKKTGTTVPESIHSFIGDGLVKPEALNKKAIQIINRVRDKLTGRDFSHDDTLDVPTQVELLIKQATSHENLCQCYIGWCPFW
Chain of mTOR enzyme (mTOR(1360-2549)+GBL) (Q9BVC4 whole entry partner, species assumed): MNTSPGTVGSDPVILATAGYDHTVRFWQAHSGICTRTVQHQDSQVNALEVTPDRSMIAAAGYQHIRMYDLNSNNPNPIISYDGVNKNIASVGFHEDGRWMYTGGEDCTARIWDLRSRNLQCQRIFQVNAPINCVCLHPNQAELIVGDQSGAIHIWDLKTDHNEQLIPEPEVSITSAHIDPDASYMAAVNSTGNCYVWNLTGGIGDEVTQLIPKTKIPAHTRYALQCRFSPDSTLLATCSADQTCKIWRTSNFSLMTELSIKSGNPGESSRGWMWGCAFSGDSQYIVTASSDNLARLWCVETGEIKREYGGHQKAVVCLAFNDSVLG

With `C[C@H]1COCCN1c1nc(-c2ccc(NC(=O)NC3(CO)CC3)cc2)nc2c1CCC1(CC1)O2` [Example 70, (S)-1-(1-(hydroxymethyl)cyclopropyl)-3-(4-(4′-(3-methylmorpholino)-5′,6′-dihydrospiro[cyclopropane-1,7′-pyrano[2,3-d]pyrimidine]-2′-yl)phenyl)urea], the Ki (usually the equilibrium dissociation constant of an inhibitor or competing ligand from its target) in test [1] worked out at 0.02 µM. For the same compound, the EC50 (commonly the concentration at which the effect is half-maximal) in the test on PC3 cells (setting [2]) worked out at 1.6 µM.

Consider `CNc1nc2cc(-c3nc(N4CCOC[C@@H]4C)c4c(n3)C(C)(C)OC4)ccc2[nH]1` [Example 125, (S)-5-(7,7-dimethyl-4-(3-methylmorpholino)-5,7-dihydrofuro[3,4-d]pyrimidin-2-yl)-N-methyl-1H-benzo[d]imidazol-2-amine], for which the Ki in test [1] was 0.01 µM. Further, the EC50 in the test with PC3 cells (setting [2]) came out at 0.562 µM.

Turning to `CCNC(=O)Nc1ccc(-c2nc(N3CCOC[C@@H]3C)c3c(n2)[C@](C)(CCN(C)CC)OC3)cc1` [Example 78 eq (S), 1-ethyl-3-(4-((S)-7-(2-(ethyl(methyl)amino)ethyl)-7-methyl-4-((S)-3-methylmorpholino)-5,7-dihydrofuro[3,4-d]pyrimidin-2-yl)phenyl)urea], the Ki in test [1] stood at 0.021 µM. The same compound came in with an EC50 with PC3 cells (with PC3 cells) of 1.3 µM.

In the case of `CCNC(=O)Nc1ccc(-c2nc3c(c(N4CCOC[C@@H]4C)n2)COC(COCc2ccccc2)C3)cc1` (stereo partly drawn) [1-(4-(7-(benzyloxymethyl)-4-((S)-3-methylmorpholino)-7,8-dihydro-5H-pyrano[4,3-d]pyrimidin-2-yl)phenyl)-3-ethylurea], the Ki in test [1] was found to be 0.016 µM. Further, in the test on PC3 cells (setting [2]), a half-maximal response (EC50) required 0.585 µM.

Take `CC[C@H]1COCCN1c1nc(-c2cnc(N)nc2)nc2c1CCCO2` [Example 128, (S)-5-(4-(3-ethylmorpholino)-6,7-dihydro-5H-pyrano[2,3-d]pyrimidin-2-yl)pyrimidin-2-amine]: the Ki in test [1] was 0.103 µM. This compound gave an EC50 in the test on PC3 cells (setting [2]) of 1.2 µM.

Take `C[C@H]1COCCN1c1nc(-c2ccc(NC(=O)NCCO)cc2)nc2c1CCCO2` [Example 33, (S)-1-(2-hydroxyethyl)-3-(4-(4-(3-methylmorpholino)-6,7-dihydro-5H-pyrano[2,3-d]pyrimidin-2-yl)phenyl)urea]: the Ki in test [1] came to 0.001 µM. Also, it took 0.111 µM to reach a half-maximal effect with PC3 cells (setting [2]) (EC50).

Consider `C[C@H]1COCCN1c1nc(-c2ccc(NC(=O)Nc3cnn(C)c3)cc2)nc2c1CCC1(CC1)O2` [Example 50, (S)-1-(1-methyl-1H-pyrazol-4-yl)-3-(4-(4′-(3-methylmorpholino)-5′,6′-dihydrospiro[cyclopropane-1,7′-pyrano[2,3-d]pyrimidine]-2′-yl)phenyl)urea], for which the Ki in test [1] worked out at 0.001 µM. The same compound gave an EC50 in the test with PC3 cells (setting [2]) of 0.029 µM.

`Cn1cc(NC(=O)Nc2ccc(-c3nc4c(c(N5CCOCC5)n3)CCC3(CC3)O4)cc2)cn1` [Example 45, 1-(1-methyl-1H-pyrazol-4-yl)-3-(4-(4′-morpholino-5′,6′-dihydrospiro[cyclopropane-1,7′-pyrano[2,3-d]pyrimidine]-2′-yl)phenyl)urea]: in test [1], the Ki came to 0.002 µM. In the test with PC3 cells (setting [2]), this compound gave an EC50 of 0.102 µM.

Consider `COCC[C@]1(C)OCc2c(N3CCOC[C@@H]3C)nc(-c3ccc4onc(N)c4c3)nc21` [Example 119 hq^1], for which the Ki in test [1] was 4.3 µM and 1.5 µM. Moreover, the EC50 with PC3 cells (setting [2]) was determined as 0.203 µM.

For the compound `CCNC(=O)Nc1ccc(-c2nc(N3CCOC[C@@H]3C)c3c(n2)[C@@](C)(CC(C)O)OC3)cc1` (stereo partly drawn) [1-ethyl-3-(4-((7R)-7-(2-hydroxypropyl)-7-methyl-4-((S)-3-methylmorpholino)-5,7-dihydrofuro[3,4-d]pyrimidin-2-yl)phenyl)urea], the Ki in test [1] amounted to 0.002 µM. The EC50 in the test with PC3 cells (setting [2]) came out at 0.039 µM.

With `O=C(Nc1ccc(-c2nc3c(c(N4[C@@H]5CC[C@H]4COC5)n2)CCC2(CC2)O3)cc1)NC1COC1` [Example 71, 1-(4-(4′-((1R,5S)-3-oxa-8-azabicyclo[3.2.1]octan-8-yl)-5′,6′-dihydrospiro[cyclopropane-1,7′-pyrano[2,3-d]pyrimidine]-2′-yl)phenyl)-3-(oxetan-3-yl)urea], the Ki in test [1] was determined as 0.002 µM. The compound also had an EC50 in the test with PC3 cells (setting [2]) of 0.479 µM.

For the compound `CCNC(=O)Nc1ccc(-c2nc3c(c(N4C[C@@H]5C[C@H]4CO5)n2)CCCO3)cc1` [Example 3, 1-(4-(4-((1S,4S)-2-oxa-5-azabicyclo[2.2.1]heptan-5-yl)-6,7-dihydro-5H-pyrano[2,3-d]pyrimidin-2-yl)phenyl)-3-ethylurea], the Ki in test [1] turned out to be 0.022 µM. In the test on PC3 cells (setting [2]), this compound had an EC50 of 1.2 µM.

For `CCNC(=O)Nc1ccc(-c2nc3c(c(N4CCOC[C@@H]4C)n2)CCC2(CC2)O3)cc1` [Example 49, (S)-1-ethyl-3-(4-(4′-(3-methylmorpholino)-5′,6′-dihydrospiro[cyclopropane-1,7′-pyrano[2,3-d]pyrimidine]-2′-yl)phenyl)urea], the Ki in test [1] was found to be 0.0003 µM. The compound also gave an EC50 in the test with PC3 cells (setting [2]) of 0.067 µM.

On to `C[C@H]1COCCN1c1nc(-c2ccc(Nc3nccc(=O)[nH]3)cc2)nc2c1COC(CO)C2` (stereo partly drawn) [2-(4-(7-(hydroxymethyl)-4-((S)-3-methylmorpholino)-7,8-dihydro-5H-pyrano[4,3-d]pyrimidin-2-yl)phenylamino)pyrimidin-4(3H)-one], for which the Ki in test [1] was determined as 0.004 µM. In the test on PC3 cells (setting [2]), this compound displayed an EC50 of 2.8 µM.

For the compound `CC[C@H]1COCCN1c1nc(-c2ccc(Nc3cccc(=O)[nH]3)cc2)nc2c1COCC2` [Example 5, (S)-6-(4-(4-(3-ethylmorpholino)-7,8-dihydro-5H-pyrano[4,3-d]pyrimidin-2-yl)phenylamino)pyridin-2(1H)-one], the Ki in test [1] was 0.002 µM. This compound also registered an EC50 in the test with PC3 cells (setting [2]) of 0.297 µM.

Regarding `Nc1ccc(-c2nc3c(c(N4C[C@H]5CC[C@@H](C4)O5)n2)CCCO3)cn1` [Example 130, 5-(4-((1R,5S)-8-oxa-3-azabicyclo[3.2.1]octan-3-yl)-6,7-dihydro-5H-pyrano[2,3-d]pyrimidin-2-yl)pyridin-2-amine], the Ki in test [1] was 0.03 µM. The compound also gave an EC50 in the test with PC3 cells (setting [2]) of 0.743 µM.

Take `CC1(C)OCc2c(N3CCOCC3)nc(-c3ccc4oc(N)nc4c3)nc21` [Example 114, 5-(7,7-dimethyl-4-morpholino-5,7-dihydrofuro[3,4-d]pyrimidin-2-yl)benzo[d]oxazol-2-amine]: the Ki in test [1] amounted to 0.124 µM. In addition, a half-maximal response in the test with PC3 cells (setting [2]) (EC50) required 2.5 µM.

As to `Cc1coc(NC(=O)Nc2ccc(-c3nc4c(c(N5CCOC[C@@H]5C)n3)CCC3(CC3)O4)cc2)n1` [Example 53, (S)-1-(4-(4′-(3-methylmorpholino)-5′,6′-dihydrospiro[cyclopropane-1,7′-pyrano[2,3-d]pyrimidine]-2′-yl)phenyl)-3-(4-methyloxazol-2-yl)urea], the Ki in test [1] stood at 0.001 µM. This compound gave an EC50 in the test on PC3 cells (setting [2]) of 0.233 µM.

In the case of `C[C@H]1COCCN1c1nc(-c2ccc(Nc3cccc(=O)[nH]3)cc2)nc2c1CCC1(CC1)O2` [Example 54, (S)-6-(4-(4′-(3-methylmorpholino)-5′,6′-dihydrospiro[cyclopropane-1,7′-pyrano[2,3-d]pyrimidine]-2′-yl)phenylamino)pyridin-2(1H)-one], the Ki in test [1] is 0.001 µM. In the test on PC3 cells (setting [2]), this compound had an EC50 of 0.04 µM.

As for `C=CC[C@]1(C)OCc2c(N3CCOCC3)nc(-c3ccc(NC(=O)NCC)cc3)nc21` [Example 73 eb (S), (S)-1-(4-(7-allyl-7-methyl-4-morpholino-5,7-dihydrofuro[3,4-d]pyrimidin-2-yl)phenyl)-3-ethylurea], the Ki in test [1] was found to be 0.002 µM. In the test on PC3 cells (setting [2]), this compound came in with an EC50 of 0.0376 µM.

As to `C[C@H]1COCCN1c1nc(-c2ccc(NC(=O)Nc3ccn(C)n3)cc2)nc2c1CCC1(CC1)O2` [Example 52, (S)-1-(1-methyl-1H-pyrazol-3-yl)-3-(4-(4′-(3-methylmorpholino)-5′,6′-dihydrospiro[cyclopropane-1,7′-pyrano[2,3-d]pyrimidine]-2′-yl)phenyl)urea], the Ki in test [1] worked out at 0.001 µM. Besides, a half-maximal response in the test on PC3 cells (setting [2]) (EC50) required 0.172 µM.

Regarding `C[C@H]1COCCN1c1nc(-c2ccc(NC(=O)NCCS(C)(=O)=O)cc2)nc2c1COCC2` [Example 59, (S)-1-(4-(4-(3-methylmorpholino)-7,8-dihydro-5H-pyrano[4,3-d]pyrimidin-2-yl)phenyl)-3-(2-(methylsulfonyl)ethyl)urea], the Ki in test [1] turned out to be 0.046 µM. In the test with PC3 cells (setting [2]), this compound displayed an EC50 of 4 µM.

Regarding `CCNC(=O)Nc1ccc(-c2nc3c(c(N4CCOCC4)n2)COC(c2ccccn2)C3)cc1` (stereo not drawn) [1-ethyl-3-(4-(4-morpholino-7-(pyridin-2-yl)-7,8-dihydro-5H-pyrano[4,3-d]pyrimidin-2-yl)phenyl)urea], in test [1], the Ki was determined as 0.027 µM. In the test on PC3 cells (setting [2]), the EC50 was 0.914 µM.

Turning to `CCC[C@@]1(C)OCc2c(N3CCOCC3)nc(-c3ccc(NC(=O)NCC)cc3)nc21` [Example 73 ef (R), (R)-1-ethyl-3-(4-(7-methyl-4-morpholino-7-propyl-5,7-dihydrofuro[3,4-d]pyrimidin-2-yl)phenyl)urea], the Ki in test [1] was determined as 0.004 µM. Also, in the test on PC3 cells (setting [2]), the EC50 is 0.092 µM.

For `C[C@H]1COCCN1c1nc(-c2ccc(Nc3cccc(=O)[nH]3)cc2)nc2c1CCCO2` [Example 35, (S)-6-(4-(4-(3-methylmorpholino)-6,7-dihydro-5H-pyrano[2,3-d]pyrimidin-2-yl)phenylamino)pyridin-2(1H)-one], in test [1], the Ki was 0.002 µM. The compound also came in with a concentration giving a half-maximal response (EC50) in the test with PC3 cells (setting [2]) of 0.236 µM.

Consider `CCNC(=O)Nc1ccc(-c2nc3c(c(N4CCOC[C@@H]4CC)n2)CCCO3)cc1` [Example 2, (S)-1-ethyl-3-(4-(4-(3-ethylmorpholino)-6,7-dihydro-5H-pyrano[2,3-d]pyrimidin-2-yl)phenyl)urea], for which the Ki in test [1] turned out to be 0.001 µM. The EC50 in the test on PC3 cells (setting [2]) came out at 0.144 µM.

Regarding `COCC[C@]1(C)OCc2c(N3CCOC[C@@H]3C)nc(-c3ccc4nc(N)[nH]c4c3)nc21` [Example 124 hv^1], in test [1], the Ki was 0.024 µM and 0.081 µM. In addition, the midpoint of the response in the test with PC3 cells (setting [2]), the EC50, lay at 0.577 µM.

The values above are taken from patent US20100331305A1, “OXO-HETEROCYCLE FUSED PYRIMIDINE COMPOUNDS, COMPOSITIONS AND METHODS OF USE” (Genentech, Inc., priority 2009, published 2010).
